Measured values: ChEMBL document CHEMBL1127184, “Preparation of the enantiomers of the analgesic E-3710” (1993)

Experiments:
Type in all cases: functional
Mus musculus [1] = assay: Analgesic activity by writhing test in mice after intraveneous administration; conditions: iv
Mus musculus [2] = assay: Analgesic activity by writhing test in mice after subcutaneous administration; conditions: sc
Mus musculus [3] = assay: Analgesic activity by writhing test in mice after peroral administration; conditions: po

CN(C)CCO[C@@H](c1ccccc1)c1ccnn1C
ED50 (Mus musculus [1]): 28 mg/kg
ED50 (Mus musculus [2]): 127 mg/kg
ED50 (Mus musculus [3]): 67 mg/kg

CN(C)CCO[C@H](c1ccccc1)c1ccnn1C
ED50 (Mus musculus [1]): 13 mg/kg
ED50 (Mus musculus [2]): 21 mg/kg
ED50 (Mus musculus [3]): 37 mg/kg

CN(C)CCOC(c1ccccc1)c1ccnn1C (racemic) [CIZOLIRTINE]
ED50 (Mus musculus [1]): 16 mg/kg
ED50 (Mus musculus [2]): 70 mg/kg
ED50 (Mus musculus [3]): 56 mg/kg

O=C([O-])Cc1ccccc1Nc1c(Cl)cccc1Cl.[Na+] [DICLOFENAC SODIUM]
ED50 (Mus musculus [3]): 87 mg/kg
